How the values were obtained:
Type in all cases: cell-based
[1] = target: T1, human TLR9 (Homo sapiens, UniProt Q9NR96); experiment: TLR9 inhibition reporter assay (HEK-Blue cells, SEAP reporter, ODN2006 stimulation); details: HEK-Blue cells overexpressing human TLR9, SEAP reporter, ODN2006 5 nM
T1 construct: host or cells: HEK-Blue cells (HEK293-derived reporter line)
T1 sequence (Q9NR96 26-1032): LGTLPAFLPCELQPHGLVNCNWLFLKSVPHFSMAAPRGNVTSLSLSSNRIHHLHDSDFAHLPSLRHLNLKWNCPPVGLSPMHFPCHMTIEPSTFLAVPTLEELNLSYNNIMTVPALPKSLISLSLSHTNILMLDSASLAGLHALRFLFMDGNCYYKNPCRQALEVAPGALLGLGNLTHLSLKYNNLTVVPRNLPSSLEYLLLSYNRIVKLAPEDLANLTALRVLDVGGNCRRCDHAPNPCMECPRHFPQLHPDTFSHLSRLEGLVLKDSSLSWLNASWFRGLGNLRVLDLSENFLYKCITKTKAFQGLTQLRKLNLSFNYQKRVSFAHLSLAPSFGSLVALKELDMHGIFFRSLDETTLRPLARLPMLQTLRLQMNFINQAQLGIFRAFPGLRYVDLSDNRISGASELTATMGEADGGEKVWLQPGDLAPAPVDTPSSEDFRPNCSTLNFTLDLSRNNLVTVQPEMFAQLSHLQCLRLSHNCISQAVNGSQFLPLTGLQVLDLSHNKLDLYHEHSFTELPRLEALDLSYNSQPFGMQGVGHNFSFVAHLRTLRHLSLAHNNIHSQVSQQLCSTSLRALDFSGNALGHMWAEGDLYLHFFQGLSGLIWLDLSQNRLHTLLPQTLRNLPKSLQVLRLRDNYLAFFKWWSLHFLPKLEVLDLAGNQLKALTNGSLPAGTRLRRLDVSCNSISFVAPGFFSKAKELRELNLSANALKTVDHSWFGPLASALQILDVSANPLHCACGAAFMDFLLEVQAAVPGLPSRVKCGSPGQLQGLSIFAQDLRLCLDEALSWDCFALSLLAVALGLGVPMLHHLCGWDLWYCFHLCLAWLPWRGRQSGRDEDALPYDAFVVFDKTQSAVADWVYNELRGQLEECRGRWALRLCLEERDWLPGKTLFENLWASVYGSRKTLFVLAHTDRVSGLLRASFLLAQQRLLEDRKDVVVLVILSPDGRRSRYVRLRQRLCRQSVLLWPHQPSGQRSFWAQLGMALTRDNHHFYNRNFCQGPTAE
In short: (§1)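 Agonists (final): TLR7 gardiquimod 7.5 μM; TLR8 R848 15.9 μM; TLR9 ODN2006 5 nM. HEK-Blue reporter cells, 30 min RT compound pre-incubation, 0.05 nM–50 μM dose range, 22 h at 37 °C, colorimetric SEAP detection medium. % inhibition relative to agonist+DMSO and known-inhibitor wells.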

[2] = target: T2, human TLR8 (Homo sapiens, UniProt Q9NR97); experiment: TLR8 inhibition reporter assay (HEK-Blue cells, SEAP reporter, R848 stimulation); details: HEK-Blue cells overexpressing human TLR8, SEAP reporter, R848 15.9 μM
T2 construct: host or cells: HEK-Blue cells (HEK293-derived reporter line)
T2 sequence (Q9NR97 27-1041): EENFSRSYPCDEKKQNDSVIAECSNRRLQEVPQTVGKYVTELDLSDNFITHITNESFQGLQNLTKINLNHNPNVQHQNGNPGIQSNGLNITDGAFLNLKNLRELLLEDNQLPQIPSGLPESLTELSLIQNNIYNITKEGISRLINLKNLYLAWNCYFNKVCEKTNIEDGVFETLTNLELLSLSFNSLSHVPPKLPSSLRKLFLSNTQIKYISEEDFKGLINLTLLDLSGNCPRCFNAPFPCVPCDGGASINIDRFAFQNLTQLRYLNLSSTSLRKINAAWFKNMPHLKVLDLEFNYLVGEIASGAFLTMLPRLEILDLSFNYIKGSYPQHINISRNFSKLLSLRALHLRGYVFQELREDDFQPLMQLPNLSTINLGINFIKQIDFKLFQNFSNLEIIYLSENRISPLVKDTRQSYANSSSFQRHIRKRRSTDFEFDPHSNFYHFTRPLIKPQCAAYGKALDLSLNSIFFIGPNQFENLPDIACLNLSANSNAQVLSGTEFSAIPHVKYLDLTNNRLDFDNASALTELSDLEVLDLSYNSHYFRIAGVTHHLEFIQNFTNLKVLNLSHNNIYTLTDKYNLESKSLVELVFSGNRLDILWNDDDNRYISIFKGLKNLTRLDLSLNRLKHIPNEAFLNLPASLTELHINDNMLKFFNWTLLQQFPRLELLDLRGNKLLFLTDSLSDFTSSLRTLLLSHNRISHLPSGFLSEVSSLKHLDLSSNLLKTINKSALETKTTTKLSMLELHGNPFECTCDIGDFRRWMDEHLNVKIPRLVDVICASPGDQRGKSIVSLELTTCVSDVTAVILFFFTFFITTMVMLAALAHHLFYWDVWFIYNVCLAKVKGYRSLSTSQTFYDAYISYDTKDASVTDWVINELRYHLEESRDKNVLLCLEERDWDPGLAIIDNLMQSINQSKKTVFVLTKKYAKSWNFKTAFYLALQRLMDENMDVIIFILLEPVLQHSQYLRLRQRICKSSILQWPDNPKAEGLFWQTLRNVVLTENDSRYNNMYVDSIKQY
In short: as §1

[3] = target: T3, human TLR7 (Homo sapiens, UniProt Q9NYK1); experiment: TLR7 inhibition reporter assay (HEK-Blue cells, SEAP reporter, gardiquimod stimulation); details: HEK-Blue cells overexpressing human TLR7, SEAP reporter, gardiquimod 7.5 μM
T3 construct: host or cells: HEK-Blue cells (HEK293-derived reporter line)
T3 sequence (Q9NYK1 27-1049): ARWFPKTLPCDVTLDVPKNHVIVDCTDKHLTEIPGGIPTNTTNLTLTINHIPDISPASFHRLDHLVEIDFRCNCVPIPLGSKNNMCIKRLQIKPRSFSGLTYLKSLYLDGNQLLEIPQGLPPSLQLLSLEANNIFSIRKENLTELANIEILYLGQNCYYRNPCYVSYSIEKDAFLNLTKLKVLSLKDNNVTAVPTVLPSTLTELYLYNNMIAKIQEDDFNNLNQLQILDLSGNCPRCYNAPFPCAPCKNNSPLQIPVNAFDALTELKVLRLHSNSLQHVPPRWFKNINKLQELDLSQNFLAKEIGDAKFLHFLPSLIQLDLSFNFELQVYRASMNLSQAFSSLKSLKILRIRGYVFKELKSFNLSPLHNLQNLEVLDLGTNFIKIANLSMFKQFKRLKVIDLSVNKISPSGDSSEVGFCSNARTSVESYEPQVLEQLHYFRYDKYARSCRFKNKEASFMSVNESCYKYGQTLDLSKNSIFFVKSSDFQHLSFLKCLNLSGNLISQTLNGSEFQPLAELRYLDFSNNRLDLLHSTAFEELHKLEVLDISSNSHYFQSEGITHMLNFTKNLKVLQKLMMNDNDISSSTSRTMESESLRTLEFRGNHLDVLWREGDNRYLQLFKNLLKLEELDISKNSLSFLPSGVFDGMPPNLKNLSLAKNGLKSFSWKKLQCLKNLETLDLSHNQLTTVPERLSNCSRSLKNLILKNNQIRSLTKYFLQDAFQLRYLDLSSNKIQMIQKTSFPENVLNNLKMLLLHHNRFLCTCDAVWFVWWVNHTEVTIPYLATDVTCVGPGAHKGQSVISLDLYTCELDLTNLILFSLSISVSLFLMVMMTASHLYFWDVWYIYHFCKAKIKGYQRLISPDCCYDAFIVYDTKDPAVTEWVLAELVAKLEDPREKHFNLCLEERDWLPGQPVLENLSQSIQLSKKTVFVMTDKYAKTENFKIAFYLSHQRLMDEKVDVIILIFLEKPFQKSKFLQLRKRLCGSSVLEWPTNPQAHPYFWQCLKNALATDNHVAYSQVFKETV
In short: as §1

Structure (SMILES) | IC50 [1] | IC50 [2] | IC50 [3]
CCc1ncc(CN2CCC(c3ccc4[nH]c(-c5ccnc6[nH]ncc56)c(CC)c4c3)CC2)[nH]1 [Example 915, 4-(3-ethyl-5-(1-((2-ethyl-1H-imidazol-5-yl)methyl)piperidin-4-yl)-1H-indol-2-yl)-1H-pyrazolo[3,4-b]pyridine] | 100 to 1000 nM | < 100 nM | 100 to 1000 nM
Cc1cc2cc(-c3[nH]c4ccc(C5CCN(C(=O)CN(C)C)CC5)cc4c3C(C)C)ccn2n1 [Example 535, 2-(dimethylamino)-1-(4-(3-isopropyl-2-(2-methylpyrazolo[1,5-a]pyridin-5-yl)-1H-indol-5-yl)piperidin-1-yl)ethan-1-one] | 1000 to 50000 nM | 1000 to 50000 nM | 100 to 1000 nM
CCc1c(-c2ccnc3[nH]ncc23)[nH]c2ccc(C3CCN(Cc4c(C)noc4C)CC3)cc12 [Example 893, 4-((4-(3-ethyl-2-(1H-pyrazolo[3,4-b]pyridin-4-yl)-1H-indol-5-yl)piperidin-1-yl)methyl)-3,5-dimethylisoxazole] | 1000 to 50000 nM | < 100 nM | 100 to 1000 nM
CNCCN1CCC(c2ccc3[nH]c(-c4ccc5nccn5c4)c(CC(F)F)c3c2)CC1 [Example 681, 2-(4-(3-(2,2-difluoroethyl)-2-(imidazo[1,2-a]pyridin-6-yl)-1H-indol-5-yl)piperidin-1-yl)-N-methylethan-1-amine] | < 100 nM | < 100 nM | < 100 nM
CNC(=O)CN1CCC(c2ccc3[nH]c(-c4cc(C)n5ncnc5c4)c(C(C)C)c3c2)CC1 [Example 325, 2-(4-(3-isopropyl-2-(5-methyl-[1,2,4]triazolo [1,5-a]pyridin-7-yl)-1H-indol-5-yl)piperidin-1-yl)-N-methylacetamide] | 1000 to 50000 nM | < 100 nM | < 100 nM
Cc1cc(-c2[nH]c3ccc(C4CCN(C(=O)CN(C)C)CC4)cc3c2C(C)C)cn2cc(C(=O)N(C)CCO)nc12 [Example 494, 6-(5-(1-(dimethylglycyl)piperidin-4-yl)-3-isopropyl-1H-indol-2-yl)-N-(2-hydroxyethyl)-N,8-dimethylimidazo[1,2-a]pyridine-2-carboxamide] | 1000 to 50000 nM | < 100 nM | < 100 nM
CCc1c(-c2c[nH]c3ncccc23)[nH]c2ccc(C3CCNCC3)cc12 [Example 243, 3-(3-ethyl-5-(piperidin-4-yl)-1H-indol-2-yl)-1H-pyrrolo[2,3-b]pyridine] | 100 to 1000 nM | < 100 nM | < 100 nM
CC(C)c1c(-c2cnc3[nH]c(=O)oc3c2)[nH]c2ccc(C3CCNCC3)cc12 [Example 16, 6-(3-isopropyl-5-(piperidin-4-yl)-1H-indol-2-yl)oxazolo[4,5-b]pyridin-2(3H)-one] | 1000 to 50000 nM | > 3130 nM | 100 to 1000 nM
Cc1cc(-c2[nH]c3ccc(C4CCN(C5COC5)CC4)cc3c2C(C)C)cn2nnnc12 [Example 741, 6-(3-isopropyl-5-(1-(oxetan-3-yl)piperidin-4-yl)-1H-indol-2-yl)-8-methyltetrazolo[1,5-a]pyridine] | 1000 to 50000 nM | < 100 nM | < 100 nM
CC(C)c1c(-c2c[nH]c3cnccc23)[nH]c2ccc(C3CCNCC3)cc12 [Example 15, 3-(3-isopropyl-5-(piperidin-4-yl)-1H-indol-2-yl)-1H-pyrrolo[2,3-c]pyridine] | 100 to 1000 nM | 1000 to 50000 nM | 100 to 1000 nM
Cc1cn2cc(-c3[nH]c4ccc(C5CCN(C6COC6)CC5)cc4c3C(C)C)cc(C)c2n1 [Example 717, 6-(3-isopropyl-5-(1-(oxetan-3-yl)piperidin-4-yl)-1H-indol-2-yl)-2,8-dimethylimidazo[1,2-a]pyridine] | 100 to 1000 nM | 100 to 1000 nM | < 100 nM
Cc1c(-c2[nH]c3ccc(C4CCNCC4)cc3c2C(C)C)c2cccnc2n1C [Example 37, 3-(3-isopropyl-5-(piperidin-4-yl)-1H-indol-2-yl)-1,2-dimethyl-1H-pyrrolo[2,3-b]pyridine] | 1000 to 50000 nM | < 100 nM | < 100 nM
Cc1cc(-c2[nH]c3ccc(C4CCN(CC(=O)N(C)C)CC4)cc3c2C(C)C)cc2nccnc12 [Example 395, 2-(4-(3-isopropyl-2-(8-methylquinoxalin-6-yl)-1H-indol-5-yl)piperidin-1-yl)-N,N-dimethylacetamide] | 1000 to 50000 nM | < 100 nM | < 100 nM
CNCCN1CCC(c2ccc3[nH]c(-c4cc5cc(OC)ccc5o4)c(C)c3c2)CC1 [Example 671, 2-(4-(2-(5-methoxybenzofuran-2-yl)-3-methyl-1H-indol-5-yl)piperidin-1-yl)-N-methylethan-1-amine] | 1000 to 50000 nM | > 3130 nM | > 50000 nM
COc1cc(-c2[nH]c3ccc(C4CCN(C(=O)CN(C)C)CC4)cc3c2C(C)C)cc2nc(C)nn12 [Example 496, 2-(dimethylamino)-1-(4-(3-isopropyl-2-(5-methoxy-2-methyl-[1,2,4]triazolo[1,5-a]pyridin-7-yl)-1H-indol-5-yl)piperidin-1-yl)ethan-1-one] | 1000 to 50000 nM | < 100 nM | < 100 nM
